Measurements from patent US5028593A, “Tuftsin analogs” (Board of Regents, The University of Texas System, priority 1989, dated 1991).
Residues, ends and D or L forms follow the SMILES beside them.

Legend:
[1] = tested on: Human polymorphonuclear leukocytes (PMN); experiment: Phagocytosis assay; assay type: cell-based; details: compared to tuftsin; statistically significant differences at peptide concentrations of 0.1, 1.0 and 10 μg/ml; fluorescent microspheres, 15 min
Experimental: Human polymorphonuclear leukocytes (PMN) are prepared from venous blood of healthy donors. Heparinized blood is mixed with dextran and kept at 37° C. for 1 hour. The leukocyte-rich plasma is collected and centrifuged. The resulting pellet is washed with Hank's balanced salt solution (HBSS). The pellet is then suspended into HBSS, layered over Lymphocyte Separation Medium (LSM) and centrifuged. The sedimented cells are washed with HBSS. Contaminant erythrocytes are lysed by suspending the cells in sterile water for 15 seconds. The isotonicity is then restored by adding 10XHBSS. After centrifuging, the PMN are washed with HBSS, suspended in the same medium, counted, and adjusted to 1×10^6 viable cells/ml (viability>95% by trypan blue dye exclusion). Cells (0.5×10^6 cells/well) are plated in 24 well plate and placed in a 37° C. CO2 incubator for 30 min. to form a monolayer. Thereafter the supernatant is aspirated. Tuftsin or analog in 250 μl HBSS and 1.25×10^7 fluorescent microspheres (2 μm diameter) in 250 μl HBSS, are added to each well resulting in a particle to PMN ratio of 25:1, mixed, and incubated for 15 min. The supernatant is then quickly aspirated and each well washed with HBSS. […] After 10 min, % phagocytosis (% of PMN containing one or more particles) is counted under a microscope. […]

[2] = tested on: Splenocytes; experiment: Thymidine incorporation assay (growth stimulation); assay type: cell-based, C57BL/6 female mouse; details: compared to tuftsin; peptide 10 μg/ml; adherent and non-adherent splenocytes; 3H-thymidine
Experimental: Spleen is obtained from C57BL/6 female mouse (approximately 3 months old). Splenocytes are prepared by teasing the spleen and passing them through a sieving screen. These cells in HBSS with 2% FBS are then layered over LSM and centrifuged. The cells at interphase are collected, washed with RPMI-1640 medium with 2% FBS, suspended in the same medium at 1×10^6 cells/ml, and plated into wells (1×10^6 cells per well). The plate is incubated for 45 min. in the incubator. Non-adherent cells in each well are transferred to a new well. Adherent cells and non-adherent cells are incubated in separate wells with peptide (10 μg/ml) for 6 hours in 1 ml RPMI-1640 medium with 2% FBS. ^3 H-thymidine (0.1 μCi per well) is then introduced. The plate is kept in the incubator for another 18 hours. Each well is washed and cells are collected into a tube using 1 ml of cold HBSS. After washing the cells twice, the cells are counted, mixed with 0.2 ml of 0.1% sodium dodecyl sulfate, and transferred to a liquid scintillation vial for determination of radioactivity.

[3] = tested on: K-562 tumor target cells; experiment: Tumor cell cytotoxicity assay by human natural killer (NK) cells (51Cr release); assay type: cell-based; details: compared to tuftsin; NK cells activated 1 hour with 10 μg peptide per ml; 4 hour 51Cr release, K-562 targets
Experimental: A leukocyte-rich buffy coat preparation obtained from leukophoresis of a normal volunteer is used. Buffy coat is diluted with HBSS, layered over LSM, and centrifuged. The mononuclear cells at interphase are collected, washed with HBSS, suspended in RPMI-1640 medium with 10% FBS, adjusted to 5×10^6 /l ml, plated on Petri dishes (10 ml each), and incubated for 1 hour. Non-adherent cells are collected, poured into bottles containing nylon wool wet with HBSS, and kept in the incubator for 1 hour. Non-adherent cells are collected, suspended in RPMI-1640 medium with 10% FBS, adjusted to 2×10^7 /ml, mixed (1:1 volume ratio) with sheep red blood cells (6×10^8 /ml), placed in 29° C. bath for 15 min., centrifuged, and again placed in 29° C. bath for another hour. Cell clumps are gently broken up, layered over LSM, and centrifuged. […]
The viability of this NK cell enriched fraction is assessed with trypan blue, and washed with RPMI-1640 medium with 5% FBS. […] Filters containing radioactive supernatants are counted on a γ counter and counts per minutes (cpm) are recorded. Percent cytotoxicity (% specific lysis) is calculated by the following formula: [formula] […] Maximum cpm is obtained by releasing the radioactivity from the target cells by treatment with Triton X-100.

## CC(C)C[C@H](NC(=O)[C@H](CCCCN)NC(=O)[C@@H](N)[C@@H](C)O)C(=O)N[C@@H](CCCCN)C(=O)O [tuftsin analog, L-Thr-L-Lys-L-Leu-L-Lys] (H-TKLK-OH)
[1]
  stimulation of phagocytosis (% phagocytosis): significantly greater stimulation of phagocytosis at lower concentrations compared to tuftsin itself
[2]
  stimulating thymidine incorporation (growth stimulation): significantly greater activity in stimulating thymidine incorporation (growth stimulation) than did tuftsin
[3]
  tumor cell cytotoxicity enhancement of human NK cells: significantly greater tumor cell cytotoxicity enhancement of human NK cells
